Measured values taken from patent US9067894B1, “Compound, composition, and method of activating GIRK potassium channel and use of same for treating conditions of interest” (Vanderbilt University, priority 2013, dated 2015).

How the values were obtained:
Dopamine D2s = molecular target: T1, Dopamine D2s (Homo sapiens, UniProt P14416); assay: Radioligand displacement (Ricerca); type: binding
T1 construct: Ricerca

Endothelin ETB = molecular target: T2, Endothelin ETB (Homo sapiens, UniProt P24530); assay: Radioligand displacement (Ricerca); type: binding
T2 construct: Ricerca

[1] = molecular target: T3, Glutamate (NMDA, glycine) (Rattus norvegicus, UniProt P35439); assay: Radioligand displacement (Ricerca); type: binding
T3 construct: Ricerca

Leukotriene = molecular target: T4, Leukotriene (Homo sapiens, UniProt Q9Y271); assay: Radioligand displacement (Ricerca); type: binding
T4 construct: Ricerca (contract laboratory that ran the panel)

Opiate (DOP) = molecular target: T5, Opiate (DOP) (Homo sapiens, UniProt P41143); assay: Radioligand displacement (Ricerca); type: binding
T5 construct: Ricerca (contract laboratory that ran the panel)

Transporter, GABA = molecular target: T6, Transporter, GABA (Rattus norvegicus, UniProt P23978); assay: Radioligand displacement (Ricerca); type: binding
T6 construct: Ricerca (contract panel)

GIRK1/2 = molecular target: T7, GIRK1/2 (Homo sapiens, UniProt P48051+P48549); assay: Thallium flux, pertussis toxin-treated cells co-expressing mGlu8 and GIRK1/2; type: cell-based; set-up: host or cells: HEK-293; settings: 600 ng/ml pertussis toxin; VU0456810 10 μM, glutamate 100 μM
T7 sequence (P48549 1-501): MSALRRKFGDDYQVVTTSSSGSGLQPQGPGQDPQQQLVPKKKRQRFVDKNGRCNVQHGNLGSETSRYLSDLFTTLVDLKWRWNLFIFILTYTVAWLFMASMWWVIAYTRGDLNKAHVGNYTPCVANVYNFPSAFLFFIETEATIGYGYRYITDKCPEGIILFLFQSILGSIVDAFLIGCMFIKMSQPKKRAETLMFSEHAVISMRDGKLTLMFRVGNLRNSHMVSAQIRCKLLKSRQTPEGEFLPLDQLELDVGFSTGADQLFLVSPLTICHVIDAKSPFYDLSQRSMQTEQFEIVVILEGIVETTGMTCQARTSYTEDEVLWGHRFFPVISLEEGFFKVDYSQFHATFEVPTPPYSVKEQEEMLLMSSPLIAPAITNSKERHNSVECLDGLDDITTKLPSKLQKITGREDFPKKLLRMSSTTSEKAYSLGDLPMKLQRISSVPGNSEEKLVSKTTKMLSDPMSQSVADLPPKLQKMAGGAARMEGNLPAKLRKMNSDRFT
T7 sequence (P48051 1-423): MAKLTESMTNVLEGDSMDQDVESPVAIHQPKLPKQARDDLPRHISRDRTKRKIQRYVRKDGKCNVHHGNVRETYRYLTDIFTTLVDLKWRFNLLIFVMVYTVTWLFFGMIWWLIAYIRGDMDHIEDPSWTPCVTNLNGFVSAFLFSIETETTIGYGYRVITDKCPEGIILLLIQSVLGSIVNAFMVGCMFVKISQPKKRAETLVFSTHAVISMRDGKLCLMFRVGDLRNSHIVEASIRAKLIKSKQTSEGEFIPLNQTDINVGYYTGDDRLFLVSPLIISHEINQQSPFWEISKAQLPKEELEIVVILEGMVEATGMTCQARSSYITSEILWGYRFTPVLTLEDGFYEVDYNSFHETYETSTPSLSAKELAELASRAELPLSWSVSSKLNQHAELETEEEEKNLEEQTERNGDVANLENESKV
From the text: Cell Line Construction and Cell Culture. HEK-293 cells co-expressing human GIRK1/2 and rat mGlu8 were generated as previously described (Niswender et al., 2008). A HEK-293 cell line (ATCC, Manassas, Va.) expressing human GIRK1 and human GIRK2 was constructed by transfecting HEK-293 cells with GIRK1 and GIRK2 (Origene, Rockville, Md.) cloned into the pBudCE4.1 vector (Life Technologies, Carlsbad, Calif.) using FuGene 6 (Promega, Madison, Wis.) transfection reagent. Unless otherwise noted, other ion channel-expressing cells were prepared by transfecting HEK-293 cells with individual or combinations of subunits: GIRK1, pCMV6-A-BSD; GIRK2, pCMV6-A-puro; GIRK3, pCMV6-A-hygro; GIRK4, pCMV6-A-AC; Kv7.4, pIRESneo3. The Kir2.1 and hERG-expressing cell lines were made by transfecting T-REx-293 cells (Life Technologies, Carlsbad, Calif.) with Kir2.1 and Kv11.1, respectively, cloned into pcDNA5TO. Monoclonal cell lines were produced by limiting-dilution cloning of antibiotic-resistant cells and functional selection using the thallium flux assay described below. Unless otherwise noted, cells were maintained in Minimal Essential Medium, Alpha Medium (Mediatech, Manassas, Va.) supplemented with 10% fetal bovine serum (Sigma-Aldrich, Saint Louis, Mo.) and GlutaGro (Mediatech, Manassas, Va.), referred to henceforth as cell culture medium. […]

T5 sequence (P41143 whole entry): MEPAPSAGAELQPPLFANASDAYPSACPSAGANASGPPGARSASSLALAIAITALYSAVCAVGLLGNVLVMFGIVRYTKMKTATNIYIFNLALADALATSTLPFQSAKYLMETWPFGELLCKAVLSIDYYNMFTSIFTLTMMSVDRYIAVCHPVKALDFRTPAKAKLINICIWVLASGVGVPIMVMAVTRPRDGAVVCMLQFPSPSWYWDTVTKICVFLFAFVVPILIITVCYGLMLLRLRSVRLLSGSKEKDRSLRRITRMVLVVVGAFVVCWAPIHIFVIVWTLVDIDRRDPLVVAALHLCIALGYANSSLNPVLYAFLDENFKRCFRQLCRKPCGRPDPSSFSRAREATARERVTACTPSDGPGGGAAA
T2 sequence (P24530 27-442): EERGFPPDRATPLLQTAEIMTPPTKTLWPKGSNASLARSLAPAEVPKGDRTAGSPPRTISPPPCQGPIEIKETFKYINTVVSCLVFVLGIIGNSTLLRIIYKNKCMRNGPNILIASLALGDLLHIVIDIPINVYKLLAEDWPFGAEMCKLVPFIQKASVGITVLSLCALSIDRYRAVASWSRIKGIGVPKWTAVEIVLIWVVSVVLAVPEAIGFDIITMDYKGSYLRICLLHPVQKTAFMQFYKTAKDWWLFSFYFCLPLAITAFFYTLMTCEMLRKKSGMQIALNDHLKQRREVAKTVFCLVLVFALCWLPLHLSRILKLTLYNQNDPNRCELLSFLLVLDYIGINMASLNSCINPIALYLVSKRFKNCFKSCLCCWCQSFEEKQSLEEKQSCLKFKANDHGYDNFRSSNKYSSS
T1 sequence (P14416 1-414 isoform P14416-2): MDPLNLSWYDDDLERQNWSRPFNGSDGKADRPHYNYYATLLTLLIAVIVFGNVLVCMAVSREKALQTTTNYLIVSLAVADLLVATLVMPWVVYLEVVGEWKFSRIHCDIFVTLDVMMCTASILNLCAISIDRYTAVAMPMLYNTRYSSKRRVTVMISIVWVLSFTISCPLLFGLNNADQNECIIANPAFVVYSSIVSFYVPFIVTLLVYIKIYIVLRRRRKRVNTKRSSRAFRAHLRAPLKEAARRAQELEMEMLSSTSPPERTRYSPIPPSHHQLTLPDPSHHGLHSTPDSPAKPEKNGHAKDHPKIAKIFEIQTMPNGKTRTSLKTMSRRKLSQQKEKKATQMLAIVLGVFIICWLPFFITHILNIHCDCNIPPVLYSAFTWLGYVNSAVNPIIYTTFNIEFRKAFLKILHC
T4 sequence (Q9Y271 whole entry): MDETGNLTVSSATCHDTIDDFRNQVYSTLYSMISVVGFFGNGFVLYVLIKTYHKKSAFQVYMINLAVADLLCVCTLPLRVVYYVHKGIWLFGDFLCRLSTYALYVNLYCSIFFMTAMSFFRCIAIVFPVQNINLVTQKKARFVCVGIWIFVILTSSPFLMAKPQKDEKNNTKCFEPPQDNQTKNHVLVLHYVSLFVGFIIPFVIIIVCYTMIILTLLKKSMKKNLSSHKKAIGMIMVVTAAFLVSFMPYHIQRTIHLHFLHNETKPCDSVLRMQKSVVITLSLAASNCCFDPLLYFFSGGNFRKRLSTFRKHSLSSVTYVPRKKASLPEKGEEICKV

## Cc1cc(NC(=O)Nc2ccc(F)c(F)c2)n(-c2ccccc2)n1 [VU0456810, 1-(3,4-difluorophenyl)-3-(3-methyl-1-phenyl-1H-pyrazol-5-yl)urea]
Dopamine D2s
  inhibition at 10 µM: 16%
Endothelin ETB
  inhibition at 10 µM: 3%
[1]
  inhibition at 10 µM: -25%
Leukotriene
  inhibition at 10 µM: 4%
Opiate (DOP)
  inhibition at 10 µM: -4%
Transporter, GABA
  inhibition at 10 µM: 5%
GIRK1/2
  effect of pertussis toxin treatment on evoked thallium flux: unable to block
